Legend:
Assay type in all cases: cell-based
LRP5/Axin binding = assay: Axin-LRP5 binding immunoprecipitation; conditions: significantly induced at 30 minutes; data not shown
Source text: If the observation is true, then the phosphorylated PPPSP motif will serve as an Axin docking site.
GSK3β is involved in PTH-stimulated LRP6 phosphorylation at its PPPSP motifs. However, the phosphorylation of LRP5 by PTH was very strong and seems GSK3β-unrelated. Since LRP6N, the extracellular domain with transmembrane region, functions as dominant-negative, we examined whether it inhibits PTH-induced Axin binding with LRP5/6.

LRP5 = target: T1, LRP5 (Homo sapiens, UniProt O75197); assay: LRP5 PPPSP phosphorylation in HEK293 cells (Ab1490 Western blot); conditions: HEK293 cells transfected with HA-tagged LRP5; at 45 minutes; 5×10^−7 M PTH (1-84)
T1 construct: expressed in transfected cells; host or cells: HEK293
Procedure: HEK293 cells transfected with HA-tagged LRP5 were treated with conditioned medium containing Wnt-3a (lane 1), control medium with 5×10^−7 M PTH (1-84) for the indicated time periods (lane 3-5), or without PTH treatment (lane 2). Phosphorylated LRP5 was detected by Western blotting of the anti-HA immunoprecipitates with Ab1490, which specifically recognizes phosphorylated PPPSP sites within LRP5/6. […] VSVG-tagged LRP6 was cotransfected into HEK 293 cells with HA-Axin and GSK3β, and the cells were treated with or without 10^−7 M PTH (1-84) for the indicated time periods. The LRP6-associated Axin was determined by Western blotting of the anti-VSVG immunoprecipitates with anti-HA antibody. […] The LRP6-associated Axin was determined by Western blotting of the anti-VSVG immunoprecipitates with anti-HA antibody. […] The association of axin with wild type and mutant proteins was determined by Western blotting of the anti-VSVG immunoprecipitates with anti-HA antibody. […] Then luciferase activities were determined.
UMR-106 cells were treated with either PTH or Wnt-3a. The cell lysates were immunoprecipitated for endogenous LRP6, and the precipitated immunocomplexes were detected by Western blotting with an antibody that specifically recognizes the phosphorylated PPPSP motifs (aa, 1490) (Tamai et al., 2004). […]

TGFβ/Smad signaling = TGFβ/Smad signaling after PTH pretreatment
Procedure: Panel B is a graph showing the decrease in activity from the SBE-luciferase reporter in the presence of PTH and PTH1R.
It has been reported that TGFβ-induced endocytosis of TGFβ/TβRII is mediated by Sara endosome. The response of TβRII to PTH was analyzed to determine whether it is the same as to TGFβ. […] The observation was confirmed by TGFβ-induced interaction between Smad2 and Smad4.

β-catenin = β-catenin protein levels in HEK293 cells; conditions: different concentrations and time points
Procedure: In parallel, proteins from cytosolic and nuclear fractions were isolated from the UMR 106 cells after a 30 minute treatment with control medium, Wnt-3a conditioned medium, or 5×10^−7 M PTH (1-84). The proteins were transferred to a blotting membrane, and the immunoblots were stained with an anti-β-catenin antibody or antibody to a control protein (α-tubulin or histone). […] Moreover, cytosolic and nuclear β-catenin protein levels also were examined in embryonic kidney epithelial cells (HEK293) that were treated with different concentrations of PTH and harvested at different time points.

T1 sequence (O75197 32-1615, species assumed): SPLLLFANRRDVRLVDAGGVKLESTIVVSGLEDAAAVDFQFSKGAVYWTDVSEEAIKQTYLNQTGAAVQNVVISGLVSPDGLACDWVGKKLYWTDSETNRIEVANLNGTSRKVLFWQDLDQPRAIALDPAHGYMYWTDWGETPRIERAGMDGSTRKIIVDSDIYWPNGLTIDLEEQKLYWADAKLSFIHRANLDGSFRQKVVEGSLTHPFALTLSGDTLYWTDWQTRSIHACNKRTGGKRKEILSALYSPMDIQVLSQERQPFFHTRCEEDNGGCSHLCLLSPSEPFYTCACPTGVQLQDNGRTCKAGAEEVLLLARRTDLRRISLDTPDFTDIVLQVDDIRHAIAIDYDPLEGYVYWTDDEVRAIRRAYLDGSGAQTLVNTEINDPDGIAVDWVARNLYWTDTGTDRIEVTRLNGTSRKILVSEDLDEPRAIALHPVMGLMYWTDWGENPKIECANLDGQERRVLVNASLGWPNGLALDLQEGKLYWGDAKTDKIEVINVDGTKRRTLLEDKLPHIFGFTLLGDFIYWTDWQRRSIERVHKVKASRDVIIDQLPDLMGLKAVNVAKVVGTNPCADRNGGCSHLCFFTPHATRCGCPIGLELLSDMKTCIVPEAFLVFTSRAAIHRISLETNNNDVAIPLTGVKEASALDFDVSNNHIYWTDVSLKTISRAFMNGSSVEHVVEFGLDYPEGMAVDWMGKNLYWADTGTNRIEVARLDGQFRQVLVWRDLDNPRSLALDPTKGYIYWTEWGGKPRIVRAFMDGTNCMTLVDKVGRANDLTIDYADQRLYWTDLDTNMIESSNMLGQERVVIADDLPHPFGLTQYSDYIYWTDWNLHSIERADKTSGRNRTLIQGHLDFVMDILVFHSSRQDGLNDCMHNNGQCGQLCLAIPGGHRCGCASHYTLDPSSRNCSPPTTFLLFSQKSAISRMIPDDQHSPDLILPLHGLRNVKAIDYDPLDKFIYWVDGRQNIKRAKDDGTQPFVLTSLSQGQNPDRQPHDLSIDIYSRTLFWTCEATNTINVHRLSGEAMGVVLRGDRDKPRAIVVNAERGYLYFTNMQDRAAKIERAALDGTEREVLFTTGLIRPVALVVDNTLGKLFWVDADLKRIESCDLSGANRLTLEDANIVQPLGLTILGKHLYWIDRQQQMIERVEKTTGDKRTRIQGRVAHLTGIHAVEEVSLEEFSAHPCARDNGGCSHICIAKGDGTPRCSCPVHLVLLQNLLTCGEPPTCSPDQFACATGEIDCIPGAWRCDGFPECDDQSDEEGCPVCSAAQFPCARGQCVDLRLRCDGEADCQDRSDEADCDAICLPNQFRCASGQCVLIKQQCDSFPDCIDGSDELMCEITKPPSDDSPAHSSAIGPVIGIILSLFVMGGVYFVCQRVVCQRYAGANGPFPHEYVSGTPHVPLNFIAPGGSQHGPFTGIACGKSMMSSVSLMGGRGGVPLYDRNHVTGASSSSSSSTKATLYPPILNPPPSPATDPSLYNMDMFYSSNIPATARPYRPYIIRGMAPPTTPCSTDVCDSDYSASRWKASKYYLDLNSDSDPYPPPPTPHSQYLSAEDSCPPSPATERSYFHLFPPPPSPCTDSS

PTH: Parathyroid hormone ligand, form not stated at the place; figure legends give PTH (1-84) or PTH (1-34)
binding of Axin to LRP5 (LRP5/Axin binding): induced binding of Axin to LRP5 | LRP5 phosphorylation (PPPSP) (LRP5): dramatically stimulated LRP5 phosphorylation | phosphorylation of Smad2 by TGFβ after PTH pretreatment (TGFβ/Smad signaling; C2C12 cells pretreated with PTH): largely inhibited | inhibition by PTH1R of TGFβ activation of SBE luciferase reporter (TGFβ/Smad signaling; cells expressing PTH1R): enhanced the inhibition | TGFβ-induced interaction between Smad2 and Smad4 (TGFβ/Smad signaling; pretreatment with PTH): inhibits the interaction | cytosolic and nuclear β-catenin protein levels (β-catenin): stimulates protein levels of β-catenin in both the cytoplasm and the nucleus in a concentration and time dependent manner

— US8008074B2, “Compositions and methods for improving bone mass through modulation of receptors of PTH and fragments thereof” (The UAB Research Foundation, priority 2006, dated 2011)
